From ChEMBL document CHEMBL4706648, “Antitubercular 2-Pyrazolylpyrimidinones: Structure-Activity Relationship and Mode-of-Action Studies” (J Med Chem, 2021)
Converted amounts (≈) assume the structure as drawn. The source made the active and inactive calls. The rule behind the calls is not given here.

How the values were obtained:
[1] = tested on: Mycobacterium tuberculosis; assay type: functional; conditions: H37Rv, 168 h, time 7 day
[2] = Aqueous solubility of compound at pH 7.4; assay type: physicochemical
[3] = tested on: CHO; experiment: Cytotoxicity against CHO cells assessed as reduction in cell viability by MTT assay; assay type: cell-based; conditions: Cricetulus griseus
[4] = Metabolic stability in mouse liver microsomes assessed as parent compound remaining after 30 mins; assay type: ADME, Microsome; conditions: 0.5 h
[5] = Kinetic solubility of compound at 200 uM at pH 7.4 measured after 20 hrs by HPLC-DAD analysis; assay type: physicochemical; conditions: buffer, pH 7.4, 20 h
[6] = Metabolic stability in rat liver microsomes assessed as parent compound remaining after 30 mins; assay type: ADME, Microsome; conditions: 0.5 h
[7] = Metabolic stability in human liver microsomes assessed as parent compound remaining after 30 mins; assay type: ADME, Microsome; conditions: 0.5 h
[8] = tested on: Vero; experiment: Cytotoxicity against African green monkey Vero cells assessed as reduction in cell viability by MTT assay; assay type: cell-based; conditions: Chlorocebus sabaeus
[9] = tested on: Mycobacterium tuberculosis; experiment: Antimycobacterial activity against mmpL3 gene silenced Mycobacterium tuberculosis H37Rv assessed as inhibition of bacterial growth grown under middlebrook 7H9 medium incubated for 7 days by alamar blue broth microdilution method; assay type: functional, organism-based; conditions: time 7.0 day
[10] = tested on: Mycobacterium tuberculosis; experiment: Antimycobacterial activity against wild-type Mycobacterium tuberculosis H37Rv assessed as inhibition of bacterial growth grown under middlebrook 7H9 medium incubated for 7 days by alamar blue broth microdilution method; assay type: functional; conditions: 168 h, time 7 day
[11] = Protein binding in human plasma assessed as unbound fraction at 5 uM incubated for 1 hr at 37 degreeC and measured after 4 hrs by ultracentrifugation based LC-MS/MS analysis; assay type: ADME, cell-free; conditions: 5 h
[12] = tested on: Mycobacterium tuberculosis; experiment: Bactericidal activity against Mycobacterium tuberculosis H37Rv assessed as reduction in CFU grown under middlebrook 7H9/OADC-Glycerol-Tween80 medium at 1 to 2 times MIC incubated for 7 days; assay type: functional; conditions: time 7 day
[13] = Metabolic stability in mouse liver microsomes assessed as parent compound remaining at 1 uM in presence of NADPH by LC-MS/MS analysis; assay type: ADME, Microsome
[14] = tested on: Mycobacterium tuberculosis; assay type: functional; conditions: H37Rv, 168 h, time 7 day; remark: listed apart in the source
[15] = tested on: Mycobacterium tuberculosis; assay type: functional; conditions: H37Rv, 168 h, time 7 day; remark: listed apart in the source
[16] = Lipophilicity, log D of the compound in n-octanol and phosphate buffer at pH 7.4 measured after 3 hrs by HPLC-DAD analysis; assay type: physicochemical
[17] = Metabolic stability in rat liver microsomes assessed as parent compound remaining at 1 uM in presence of NADPH by LC-MS/MS analysis; assay type: ADME, Microsome
[18] = Metabolic stability in human liver microsomes assessed as parent compound remaining at 1 uM in presence of NADPH by LC-MS/MS analysis; assay type: ADME, Microsome
[19] = tested on: Mycobacterium tuberculosis; assay type: functional; conditions: H37Rv, 168 h, time 7 day; remark: listed apart in the source
[20] = tested on: Mycobacterium tuberculosis; assay type: functional; conditions: H37Rv, 168 h, time 7 day; remark: listed apart in the source

Compound	MIC [1]	solubility ([2]; aqueous, read-out: solubility)	solubility ([2]; buffer)	IC50 [3]	other results
Cc1cc(NCCN(C)C)n(-c2nc(C(F)(F)F)cc(=O)[nH]2)n1	58 µM (≈ 19.2 µg/mL)	200 µM (≈ 66.1 µg/mL)	–	–	–
Cc1cc(C(=O)N(C)C)nn1-c1nc(-c2ccc(F)cc2)cc(=O)[nH]1	> 50 µM	–	65 µM (≈ 22.2 µg/mL)	–	–
Cc1cc(Nc2ccc(C#N)cc2)n(-c2nc(C(F)(F)F)cc(=O)[nH]2)n1	9.4 µM (≈ 3.39 µg/mL)	–	75 µM (≈ 27 µg/mL)	20 µM	–
Cc1cc(C)n(-c2nc(-c3ccc(S(C)(=O)=O)cc3)cc(=O)[nH]2)n1	> 50 µM	–	8 µM (≈ 2.76 µg/mL)	> 50 µM	–
Cc1cc(C)n(-c2nc(-c3ccc(F)cc3)c(C(N)=O)c(=O)[nH]2)n1	> 50 µM	–	110 µM (≈ 36 µg/mL)	–	–
CCc1cc(C)nn1-c1nc(C(F)(F)F)cc(=O)[nH]1	12 µM (≈ 3.27 µg/mL)	200 µM (≈ 54.4 µg/mL)	–	108 µM	–
Cc1cc(Nc2ccc(N3CCOCC3)cn2)n(-c2nc(C(F)(F)F)cc(=O)[nH]2)n1	2.3 µM (≈ 0.969 µg/mL)	–	180 µM (≈ 75.8 µg/mL)	1.3 µM	–
Cc1cc(C)n(-c2nc(-c3ccccc3)c(C)c(=O)[nH]2)n1	2 µM (≈ 0.561 µg/mL)	–	120 µM (≈ 33.6 µg/mL)	25 µM	Stabilty [4]: 45%; Kinetic_solubility [5]: 120 µM; Stabilty [6]: 54%; Stabilty [7]: 65%
Cc1cc(Nc2ccncc2)n(-c2nc(C(F)(F)F)cc(=O)[nH]2)n1	> 50 µM	–	20 µM (≈ 6.73 µg/mL)	–	–
Cc1cc(Nc2ccc(F)cc2F)n(-c2nc(C(F)(F)F)cc(=O)[nH]2)n1	0.3 µM (≈ 0.111 µg/mL)	< 5 µM	–	8 µM	–
Cc1cc(N)n(-c2nc(C(F)(F)F)cc(=O)[nH]2)n1	20 µM (≈ 5.18 µg/mL)	200 µM (≈ 51.8 µg/mL)	–	120 µM	–
Cc1cc(Nc2ccc(C(=O)N(C)C)cc2)n(-c2nc(C(F)(F)F)cc(=O)[nH]2)n1	> 50 µM	200 µM (≈ 81.3 µg/mL)	–	–	–
Cc1cc(C)n(-c2nc(-c3ccc(F)cc3)c(C(=O)O)c(=O)[nH]2)n1	> 50 µM	–	190 µM (≈ 62.4 µg/mL)	> 50 µM	–
Cc1cc(C)n(-c2nc(-c3ccccc3)cc(=O)n2C)n1	> 50 µM	200 µM (≈ 56.1 µg/mL)	–	–	IC50 [8]: 357 µM
Cc1cc(C)n(-c2nc(-c3ccncc3)cc(=O)[nH]2)n1	9 µM (≈ 2.41 µg/mL)	–	180 µM (≈ 48.1 µg/mL)	> 50 µM	–
Cc1cc(C)n(-c2nc(-c3ccc(F)cc3)c(C#N)c(=O)[nH]2)n1	> 50 µM	–	30 µM (≈ 9.28 µg/mL)	> 50 µM	–
Cc1cc(C)n(-c2nc(-c3ccc(F)cc3)cc(=O)[nH]2)n1	1.2 µM (≈ 0.341 µg/mL)	–	35 µM (≈ 9.95 µg/mL)	4 µM	–
CC(=O)Nc1cc(C)nn1-c1nc(-c2ccccc2)cc(=O)[nH]1	6 µM (≈ 1.86 µg/mL)	–	150 µM (≈ 46.4 µg/mL)	–	IC50 [8]: 35 µM; Activity [9]: Active; MIC [10]: 27 µM (≈ 8.35 µg/mL)
Cc1cc(=O)n(-c2nc(-c3ccccc3)cc(=O)[nH]2)[nH]1	> 125 µM	190 µM (≈ 51 µg/mL)	–	–	–
Cn1ccnc1-c1nc(-c2ccccc2)cc(=O)[nH]1	20 µM (≈ 5.05 µg/mL)	200 µM (≈ 50.5 µg/mL)	–	4 µM	–
Cc1cc(C)n(-c2cc(=O)cc(-c3ccccc3)[nH]2)n1	> 50 µM	–	120 µM (≈ 31.8 µg/mL)	> 50 µM	–
Cc1cc(O)nc(-n2nc(C)cc2C)n1	30 µM (≈ 6.13 µg/mL)	–	180 µM (≈ 36.8 µg/mL)	–	IC50 [8]: 325 µM
Cc1cc(NC2CCOCC2)n(-c2nc(C(F)(F)F)cc(=O)[nH]2)n1	1.56 µM (≈ 0.536 µg/mL)	–	50 µM (≈ 17.2 µg/mL)	18 µM	Stabilty [4]: 93%; Fu [11]: 0.014; Kinetic_solubility [5]: 50 µM; Stabilty [6]: > 99%; Stabilty [7]: > 99%
Cc1cc(C)n(-c2nc(C)c(-c3ccccc3)c(=O)[nH]2)n1	9 µM (≈ 2.52 µg/mL)	–	190 µM (≈ 53.3 µg/mL)	9 µM	–
CCNc1cc(C)nn1-c1nc(C(F)(F)F)cc(=O)[nH]1	6.25 µM (≈ 1.8 µg/mL)	–	85 µM (≈ 24.4 µg/mL)	8 µM	–

Compound	MIC [1]	solubility ([2]; aqueous, read-out: solubility)	solubility ([2]; buffer)	IC50 [3]	other results
CNC(=O)c1ccc(-c2cc(=O)[nH]c(-n3nc(C)cc3C)n2)cc1	> 50 µM	–	70 µM (≈ 22.6 µg/mL)	> 50 µM	–
CO[C@H]1/C=C/O[C@@]2(C)Oc3c(C)c(O)c4c(O)c(c(/C=N/N5CCN(C)CC5)c(O)c4c3C2=O)NC(=O)/C(C)=C\C=C\[C@H](C)[C@H](O)[C@@H](C)[C@@H](O)[C@@H](C)[C@H](OC(C)=O)[C@@H]1C [RIFAMPIN]	–	–	–	–	Activity [12]: 2 log10CFU
Cc1cc(C)n(-c2nc(C(=O)Nc3ccc(F)cc3)cc(=O)[nH]2)n1	25 µM (≈ 8.18 µg/mL)	200 µM (≈ 65.5 µg/mL)	–	> 50 µM	–
Cc1cc(C2CC2)n(-c2nc(C(F)(F)F)cc(=O)[nH]2)n1	12 µM (≈ 3.41 µg/mL)	–	160 µM (≈ 45.5 µg/mL)	78 µM	–
Cc1cc(C)n(-c2cc(-c3ccccc3)nc(=O)[nH]2)n1	2 µM (≈ 0.533 µg/mL)	–	30 µM (≈ 7.99 µg/mL)	10 µM	–
CCOc1cc(C)nn1-c1nc(C(F)(F)F)cc(=O)[nH]1	25 µM (≈ 7.21 µg/mL)	–	120 µM (≈ 34.6 µg/mL)	> 50 µM	–
Cc1cc(C)n(-c2nc(-c3ccc(N4CCOCC4)cc3)cc(=O)[nH]2)n1	> 125 µM	–	40 µM (≈ 14.1 µg/mL)	–	–
Cc1cc(-c2ccccc2)n(-c2nc(C(F)(F)F)cc(=O)[nH]2)n1	25 µM (≈ 8.01 µg/mL)	200 µM (≈ 64.1 µg/mL)	–	> 50 µM	–
Cc1nc(C)n(-c2nc(-c3ccccc3)cc(=O)[nH]2)n1	> 125 µM	–	130 µM (≈ 34.7 µg/mL)	> 50 µM	–
Cc1nn(-c2nc(C(F)(F)F)cc(=O)[nH]2)c(C)c1-c1cccnc1	> 50 µM	–	195 µM (≈ 65.4 µg/mL)	–	–
Cc1cc(C)n(-c2cc(-c3ccccc3)cc(=O)n2C)n1	> 50 µM	185 µM (≈ 51.7 µg/mL)	–	> 50 µM	–
Cc1cc(C)n(-c2nc(-c3ccc(NS(C)(=O)=O)cc3)cc(=O)[nH]2)n1	> 125 µM	–	20 µM (≈ 7.19 µg/mL)	> 50 µM	–
Nc1cc(C2CC2)nn1-c1nc(C(F)(F)F)cc(=O)[nH]1	25 µM (≈ 7.13 µg/mL)	–	10 µM (≈ 2.85 µg/mL)	24 µM	–
COc1cc(-c2ccccc2)nc(-n2nc(C)cc2C)n1	> 50 µM	200 µM (≈ 56.1 µg/mL)	–	> 50 µM	–
COCCNc1cc(C)nn1-c1nc(C(F)(F)F)cc(=O)[nH]1	2 µM (≈ 0.635 µg/mL)	200 µM (≈ 63.5 µg/mL)	–	17 µM	Activity [9]: Active; MIC [10]: 1.2 µM (≈ 0.381 µg/mL)
O=c1cc(-c2ccccc2)nc(-n2cccn2)[nH]1	50 µM (≈ 11.9 µg/mL)	–	190 µM (≈ 45.3 µg/mL)	> 50 µM	–
Cc1nn(-c2nc(C(F)(F)F)cc(=O)[nH]2)c(C)c1Br	25 µM (≈ 8.43 µg/mL)	200 µM (≈ 67.4 µg/mL)	–	> 50 µM	–
Cc1ccc(Nc2cc(C)nn2-c2nc(C)cc(O)n2)cc1	2 µM (≈ 0.591 µg/mL)	< 5 µM	–	–	Stabilty [13]: 78%; IC50 [8]: 1.2 µM; MIC [14]: 0.2 µM (≈ 0.0591 µg/mL); Activity [9]: Active; MIC [15]: 0.4 µM (≈ 0.118 µg/mL); logD at 3 h [16]: 2.2; Stabilty [17]: 76%; Stabilty [18]: 73%; MIC [19]: 0.02 µM (≈ 0.00591 µg/mL); MIC [10]: 4.8 µM (≈ 1.42 µg/mL); MIC [20]: 6 µM (≈ 1.77 µg/mL)
Cc1cc(C(=O)O)nn1-c1nc(-c2ccc(F)cc2)cc(=O)[nH]1	> 50 µM	–	155 µM (≈ 48.7 µg/mL)	–	–
Cc1cc(C)n(-c2nc3ccccc3c(=O)[nH]2)n1	3 µM (≈ 0.721 µg/mL)	–	150 µM (≈ 36 µg/mL)	6 µM	–
Cc1cc(N)n(-c2nc(-c3ccccc3)cc(=O)[nH]2)n1	–	–	180 µM (≈ 48.1 µg/mL)	–	IC50 [8]: 9 µM
Cc1cc(C)n(-c2nc(-c3cccnc3)cc(=O)[nH]2)n1	50 µM (≈ 13.4 µg/mL)	200 µM (≈ 53.5 µg/mL)	–	> 50 µM	–
Cc1cc(NCCO)n(-c2nc(C(F)(F)F)cc(=O)[nH]2)n1	37 µM (≈ 11.2 µg/mL)	200 µM (≈ 60.6 µg/mL)	–	–	–
Cc1nn(-c2nc(C(F)(F)F)cc(=O)[nH]2)c(C)c1N1CCOCC1	6.25 µM (≈ 2.15 µg/mL)	–	160 µM (≈ 54.9 µg/mL)	> 50 µM	Fu [11]: 0.03; Kinetic_solubility [5]: 160 µM
Cc1cc(CN(C)C)nn1-c1nc(C(F)(F)F)cc(=O)[nH]1	> 50 µM	200 µM (≈ 60.3 µg/mL)	–	–	–
